Source: patent US20070259056A1, “Anti-Tumour Terpene Compounds” (COMPTON DEVELOPMENTS LTD., priority 2003, published 2007)
Like-named read-outs stand apart in the source and are kept apart here.

Columns and labels:
[1] = tested on: A375 cells (a human skin melanoma cell line); test: MTT assay, cytotoxicity on A375 cells; type: cell-based; conditions: for % Cytoxicity: A375 cells; for concentration inducing / required to initiate cell death: A375 tumour cells
[2] = tested on: mixed cultures containing fibroblast cells and tumour cells; test: Mixed tissue culture of fibroblast cells and tumour cells; type: cell-based; conditions: 12 hrs
Procedure: In addition when mixed cultures containing fibroblast cells and tumour cells are treated, the normal fibroblasts appear to survive while the tumour cells go into apoptosis.
The results of such an experiment are shown in FIG. 14, wherein a mixed tissue culture has been treated for 12 hrs with 5 uM Bisabolene. […] In FIG. 15 a mixed tissue culture has been treated for 12 hrs with 100 uM Ocimene.

[3] = tested on: S180 murine sarcoma cells; test: MTT assay, cytotoxicity on S180 cells; conditions: S180 and human tumour cells in culture
Procedure: Two transformed cell lines were chosen for MTT analysis, S180 murine sarcoma cells and HT1080 human fibrosarcoma cells. Cells were seeded in 96-well microliter plates at a density of 2×10^5 cells/ml and incubated at 37° C. and 5% CO2 for 24 hours prior to treatment. 200 ul PBS was added to the wells on the outer edges of the plate to reduce evaporation loss from the wells containing cells.
Serial dilutions were carried out to enable a range of progressively more dilute concentrations of extract to be tested. The same procedure was followed to make solutions of staurosporine and ethanol of the same concentrations. Staurosporine, an agent with well-established cytotoxic properties, was incorporated into the study to provide a benchmark to compare the cytotoxicity of the extracts against.
Careful mixing with a pipette ensured thorough dissolution. […] This was done immediately after addition of DMSO.
The method was also employed to test the impact of identified components of the Haddi extracts. Thus, trans-β-Ocimene and γ-Bisabolene both major components of the Haddi extract were tested using the MTT assay to estimate their impact on tumour cell cytotoxicity and viability, see FIGS. 7 to 10.

mammals = conditions: cited from earlier work
[4] = tested on: MM6 cells (monocyte leukaemic cell line); conditions: for % Cytoxicity: MM6 cells; for concentration as low as which high cell death is induced: MM6 tumour cells
Excerpt: The MTT assay is a powerful, quantitative and highly reliable colourimetric assay that measures the viability of a cell population. […] The amount of formazan produced is directly proportional to the number of viable cells in the test population. The formazan product formed can be dissolved in dimethyl sulfoxide (DMSO), which enables quantification of the product to be obtained via spectrophotometry. A population containing largely viable cells will produce high levels of the formazan product and will therefore give a deep purple solution upon dissolution with DMSO, while a cell population that has mostly dead cells will produce a colourless solution. The amount of light absorbed (at a wavelength of 575 nm) can be converted to % cytotoxicity by using the following calculation: [control absorption−test absorption]X 100=% cytotoxicity control absorption Experimental Protocol
100 ul of each concentration of each extract/control were added to 3 separate wells in a labeled microtitre plate. In the untreated control wells 100 ul of medium was added—all wells having a total final volume of 200 ul. 3 identical replicates of this were carried out for testing after 24, 48 and 72 hours. All plates were incubated at 37° C. and 5% CO2 until reading.
After the required length of time (i.e. 24, 48 or 72 hours) 20 ul MTT solution (5 mg/ml) was added to each well (excluding wells containing only PBS). Plates were then returned to the incubator (under the same conditions) for a further 4 hours. MTT is photosensitive so all plates were covered in foil to minimise exposure to light. After 4 hours all medium from the wells was pipetted out (care was taken to avoid disturbing the formazan crystals) and 200 ul DMSO was added to each well. Careful mixing with a pipette ensured thorough dissolution. All plates were then read on a spectrophotometer for absorption of light at 575 nm. This was done immediately after addition of DMSO.

[5] = tested on: HT1080 human fibrosarcoma cells; test: Annexin V bioassay of apoptosis in HT1080 cells; type: cell-based; conditions: 5 uM, 12 hours
Excerpt: The Annexin V bioassay is used to distinguish between cells dying via the apoptotic route and cells dying by necrosis. Knowing how ocimene and bisabolene cause cell death is crucial. […] This is because necrotic cells burst and release their content into the surroundings, thus causing an inflammatory response that is potentially harmful to neighbouring, non-target cells.
The Annexin V bioassay utilises an early change in the plasma membrane of apoptotic cells during which phosphatidylserine (PS), a membrane bound phospholipid, is translocated from the inner surface of the membrane bi-layer to the outer surface—thus bringing the PS into contact with the environment. This change occurs before membrane bleeding and far earlier than DNA fragmentation thus making it an ideal marker for early apoptotic cells. Annexin V is a Ca^2+-dependent phospholipid binding protein with a high affinity for PS. In this study the Annexin V was coupled to a fluorescent marker called FITC, to generate an Annexin V-FITC conjugate. FITC fluoresces with an intense green/yellow colour when viewed via fluorescent microscopy. Thus, early apoptotic cells will bind Annexin V-FITC on their plasma membranes and fluoresce- green/yellow, whereas late apoptotic cells will fluoresce green/yellow in the cytoplasm as well as at the membrane.
To identify necrotic cells another dying agent, propidium iodide (PI) is used. […]

In the case of `C=C/C(C)=C/CC=C(C)C` [trans-β-Ocimene, trans-β-ocimene], the “% Cytoxicity” value ([1]; 46 μM, 24 hours) is reported as 7%, the “% Cytoxicity” value ([1]; 46 μM, 48 hours) is reported as −2% and the “% Cytoxicity” value ([1]; 46 μM, 72 hours) is reported as −33%. For the same compound, the “% Cytoxicity” value ([1]; 92 μM, 24 hours) was −11%, the “% Cytoxicity” value ([1]; 92 μM, 48 hours) was −25% and the “% Cytoxicity” value ([1]; 92 μM, 72 hours) was −31%. The “% Cytoxicity” value ([1]; 184 μM, 24 hours) was 7%, the “% Cytoxicity” value ([1]; 184 μM, 48 hours) was 8% and the “% Cytoxicity” value ([1]; 184 μM, 72 hours) was −10%. For the same compound, the “% Cytoxicity” value ([1]; 368 μM, 24 hours) was 29%, the “% Cytoxicity” value ([1]; 368 μM, 48 hours) was 35% and the “% Cytoxicity” value ([1]; 368 μM, 72 hours) was 31%. For the same compound, the “survival of fibrocytes versus tumour cells in mixed culture” value ([2]; 100 uM) was “fibrocytes spread out and survive whilst tumour cells round off to form apoptotic bodies”, the tumour cell death ([3]; concentrations above 200 mM) was about 100% and the toxicity to mammals (mammals) was “non toxic to mammals”.

For `CC(C)=CCC[C@](C)(O)C1CC=C(C)CC1` (stereo partly drawn) [α-Bisabolol, α-bisabolol], the “% Cytoxicity” value ([1]; 28 μM, 24 hours) was −2%, the “% Cytoxicity” value ([1]; 28 μM, 72 hours) was 1% and the “% Cytoxicity” value ([1]; 56 μM, 24 hours) was −27%. The “% Cytoxicity” value ([1]; 56 μM, 72 hours) was 10%, the “% Cytoxicity” value ([1]; 112 μM, 24 hours) was 10% and the “% Cytoxicity” value ([1]; 112 μM, 72 hours) was 26%. For the same compound, the “% Cytoxicity” value ([1]; 225 μM, 24 hours) was 31%, the “% Cytoxicity” value ([1]; 225 μM, 72 hours) was 41% and the “concentration inducing / required to initiate cell death” value [1] was 225 µM. For the same compound, the “% Cytoxicity” value ([4]; 0.13 μM, 24 hours) was 48%, the “% Cytoxicity” value ([4]; 0.13 μM, 72 hours) was 53% and the “% Cytoxicity” value ([4]; 0.25 μM, 24 hours) was 48%. The “% Cytoxicity” value ([4]; 0.25 μM, 72 hours) was 54%, the “% Cytoxicity” value ([4]; 2.5 μM, 24 hours) was 46% and the “% Cytoxicity” value ([4]; 2.5 μM, 72 hours) was 51%. The “% Cytoxicity” value ([4]; 10 μM, 24 hours) was 33%, the “% Cytoxicity” value ([4]; 10 μM, 72 hours) was 49% and the “concentration as low as which high cell death is induced” value [4] was 0.13 µM.

In the case of `CC(C)=CCC/C(C)=C1/CC=C(C)CC1` [γ-Bisabolene, γ-bisabolene], the “% Cytoxicity” value ([1]; 0.13 μM, 24 hours) is reported as 15%, the “% Cytoxicity” value ([1]; 0.13 μM, 48 hours) is reported as 5% and the “% Cytoxicity” value ([1]; 0.13 μM, 72 hours) is reported as 13%. For the same compound, the “% Cytoxicity” value ([1]; 0.25 μM, 24 hours) was 10%, the “% Cytoxicity” value ([1]; 0.25 μM, 48 hours) was 7% and the “% Cytoxicity” value ([1]; 0.25 μM, 72 hours) was 50%. The “% Cytoxicity” value ([1]; 2.5 μM, 24 hours) was 15%, the “% Cytoxicity” value ([1]; 2.5 μM, 48 hours) was 55% and the “% Cytoxicity” value ([1]; 2.5 μM, 72 hours) was 71%. For the same compound, the “% Cytoxicity” value ([1]; 10 μM, 24 hours) was 23%, the “% Cytoxicity” value ([1]; 10 μM, 48 hours) was 64% and the “% Cytoxicity” value ([1]; 10 μM, 72 hours) was 77%. The “concentration inducing / required to initiate cell death” value [1] was 0.25 µM, the “survival of fibrocytes versus tumour cells in mixed culture” value ([2]; 5 uM) was “fibrocytes survive whilst tumour cells round off as apoptotic bodies” and the “concentration at which potent” value [3] was “around 50 mM”. For the same compound, the “% Cytoxicity” value ([4]; 0.13 μM, 24 hours) was 3%, the “% Cytoxicity” value ([4]; 0.13 μM, 48 hours) was −37% and the “% Cytoxicity” value ([4]; 0.13 μM, 72 hours) was 13%. For the same compound, the “% Cytoxicity” value ([4]; 0.25 μM, 24 hours) was 49%, the “% Cytoxicity” value ([4]; 0.25 μM, 48 hours) was 68% and the “% Cytoxicity” value ([4]; 0.25 μM, 72 hours) was 80%. For the same compound, the “% Cytoxicity” value ([4]; 2.5 μM, 24 hours) was 51%, the “% Cytoxicity” value ([4]; 2.5 μM, 48 hours) was 70% and the “% Cytoxicity” value ([4]; 2.5 μM, 72 hours) was 78%. The “% Cytoxicity” value ([4]; 10 μM, 24 hours) was 45%, the “% Cytoxicity” value ([4]; 10 μM, 48 hours) was 67% and the “% Cytoxicity” value ([4]; 10 μM, 72 hours) was 78%. For the same compound, the “concentration as low as which high cell death is induced” value [4] was 0.25 µM and the “induction of apoptotic cell death (Annexin V)” value [5] was “induction of apoptotic cell death”.
